Experimental data published in PMC6927228 (Journal of Experimental Pharmacology, 2019).

Molecular target: Trypanosoma evansi protein-tyrosine phosphatase (PTPase)
Conditions: competitive; substrate pNPP; 25 mM HEPES pH 7.3, 10% glycerol, no EDTA; 37 °C

## [O]=[V]([OH])([OH])[OH] [sodium orthovanadate]
  Ki: 200 µg/mL
